Assay in all cases: DTP human tumour cell line panel, 48 h
In experiment [1] the test system is M14.
Experiment [2] concerns NCI-H522.
Experiment [3] concerns HCC 2998.
Experiment [4] relates to EKVX.
The test system of experiment [5] is LXFL 529.
In experiment [6] the test system is HOP-62.
Experiment [7] relates to SK-OV-3.
For experiment [8], the system named is RXF 393.
Experiment [9] concerns UACC-62.
Experiment [10] concerns HCT-15.
Experiment [11] relates to SF-295.
Experiment [12] relates to OVCAR-5.
The test system of experiment [13] is A549.
Experiment [14] deals with SW-620.
Experiment [15] relates to HL-60.
For experiment [16], the system named is BT-549.
The subject of experiment [17] is PC-3.
For experiment [18], the system named is MCF7.
For experiment [19], the system named is Hs-578T.
The test system of experiment [20] is MDA-MB-231.

Structures are written as SMILES.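 Grown in 96-well plates, cells were treated for 48 hours with each compound at five concentrations. Insufficient inhibition: endpoint recorded as highest concentration tested. Here, GI50 denotes the concentration required for 50% inhibition of growth.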 Calls of active or inactive are those of the source. Rule as the data show it: active = GI50 up to about 1.1 µM and inactive = higher. Where a SMILES comes first, the peptide text is derived from it. [ ]: non-standard residue; d: D form. The star is where a group is joined. ξ: configuration not given here. ξPhe(4-NO2) = NC(Cc1ccc([N+](=O)[O-])cc1)C(=O)O; Boc = CC(C)(C)OC(=O)*; OBn = c1ccc(CO*)cc1 Where only a bound is given, the exact number is not on record here.

As to `Cc1cccc(CC(C)(C)C)c1NC(=O)C(=O)C(C(=O)c1ccc2ccccc2c1)C1OC(=O)c2ccccc21` (stereo not given), the GI50 in experiment [1] is 27.2 µM (inactive); in experiment [2], 9.53 µM (inactive); in experiment [3], 12.1 µM (inactive); in [4], 20.7 µM (inactive); in experiment [5], 7.01 µM (inactive); in [6], 15.4 µM (inactive). Besides, the GI50 was 26.5 µM (inactive) in [7]; 3.4 µM (inactive) in experiment [8]; 7.52 µM (inactive) in experiment [9]; 15.3 µM in experiment [10]; 4.55 µM (inactive) in experiment [11]; 15.2 µM (inactive) in experiment [12]. For the same compound, the GI50 in experiment [13] was 12.4 µM (inactive); in experiment [14] it was 6.78 µM (inactive).

On to `C/C(=N\N(c1ccccc1)c1ccccc1)c1c(O)cc(C)oc1=O`, for which the GI50 was > 100 µM (inactive) in experiment [1]; > 100 µM (inactive) in experiment [2]; > 100 µM (inactive) in experiment [3]; > 100 µM (inactive) in [4]; 78.5 µM (inactive) in [5]; > 100 µM (inactive) in experiment [6]. In addition, the GI50 in experiment [7] is > 100 µM (inactive); in experiment [9] it was 54 µM (inactive); in [10], 71.3 µM; in experiment [11], > 100 µM (inactive); in experiment [15], > 10 µM (inactive); in [13], 75 µM (inactive). In experiment [14], the GI50 was > 100 µM (inactive).

On to `Cc1cccc(C(=O)O)c1C(=O)c1cccc2ccccc12`, for which the GI50 in experiment [1], in experiment [2], in experiment [3], in [4], in [5] and in [6] was > 100 µM (inactive) throughout. Besides, the GI50 in [7] is > 100 µM (inactive); in experiment [8], > 100 µM (inactive); in experiment [9] it was > 100 µM (inactive); in experiment [10], 37.7 µM; in experiment [11], > 100 µM (inactive); in [12] it was > 100 µM (inactive). The GI50 in experiment [13] and in experiment [14] was > 100 µM (inactive) throughout.

On to `COc1cc2c(c(OC)c1OC)-c1c(cc3c(c1OC)OCO3)CC(C)C(C)(O)C2OC(=O)c1ccccc1` (stereo not given), for which the GI50 in [1] was 34.4 µM (inactive); in experiment [2], 24.6 µM (inactive); in experiment [3], 22.9 µM (inactive); in experiment [4], 36 µM (inactive); in experiment [16] it was 56.1 µM (inactive); in experiment [6], > 100 µM (inactive). In addition, the GI50 in experiment [7] is 60.4 µM (inactive); in experiment [8], 27.9 µM (inactive); in experiment [9], 56 µM (inactive); in experiment [17] it was 26.6 µM (inactive); in experiment [10] it was 33.2 µM; in experiment [18], 44.9 µM (inactive). The GI50 in experiment [11] was 39.4 µM (inactive); in experiment [19], 32.5 µM (inactive); in [12] it was > 100 µM (inactive); in [20] it was 20.2 µM (inactive); in experiment [15] it was 19.5 µM (inactive); in experiment [13], 42.1 µM (inactive). In [14], the GI50 was 71.8 µM (inactive).

In the case of `COc1cccc(-c2cc(O)c3cc(OC)c(OC)cc3n2)c1`, the GI50 in experiment [1] is 37.9 µM (inactive); in experiment [2] it was 19.8 µM (inactive); in [3], 87.1 µM (inactive); in [4] it was 97.7 µM (inactive); in [5], 63.1 µM (inactive); in experiment [6] it was 42.1 µM (inactive). Moreover, the GI50 was 87.3 µM (inactive) in experiment [7]; 43.6 µM (inactive) in [9]; 52.6 µM in experiment [10]; 33.1 µM (inactive) in experiment [15]; 47.4 µM (inactive) in experiment [13]; 32 µM (inactive) in experiment [14].

Take `NC1CCCCC1NCCNC1CCCCC1N` (stereo not given): the GI50 in experiment [1] is > 100 µM (inactive); in [2], > 100 µM (inactive); in experiment [3] it was 32.8 µM (inactive); in experiment [4] it was > 100 µM (inactive); in [16] it was > 100 µM (inactive); in experiment [6], 53.7 µM (inactive). The GI50 in [7] is > 100 µM (inactive); in experiment [8], > 100 µM (inactive); in [9] it was > 100 µM (inactive); in [17] it was > 100 µM (inactive); in [10], above 100 µM; in experiment [18], 45.9 µM (inactive). Moreover, the GI50 in experiment [11] was > 100 µM (inactive); in experiment [19] it was 44.7 µM (inactive); in [12], 20.9 µM (inactive); in experiment [20], > 100 µM (inactive); in experiment [15], > 100 µM (inactive); in experiment [13], 28.8 µM (inactive). For the same compound, the GI50 in experiment [14] is 41.6 µM (inactive).

As for `CC(C)(C)OC(=O)NC(Cc1ccc([N+](=O)[O-])cc1)C(=O)NCC(=O)OCc1ccccc1` (stereo not given) (Boc-[ξPhe(4-NO2)]-Gly-OBn), the GI50 was 19.5 µM (inactive) in [1]; 20.2 µM (inactive) in experiment [2]; 19.6 µM (inactive) in experiment [3]; > 100 µM (inactive) in [4]; 25.7 µM (inactive) in [16]; 17.3 µM (inactive) in experiment [6]. For the same compound, the GI50 in experiment [7] was 24.6 µM (inactive); in [8], 22.2 µM (inactive); in [9], 17 µM (inactive); in experiment [17] it was 17.2 µM (inactive); in experiment [10] it was 19.4 µM; in experiment [18], 28.2 µM (inactive). The GI50 in experiment [11] is 20.5 µM (inactive); in [19], 22.3 µM (inactive); in experiment [12] it was > 100 µM (inactive); in experiment [20] it was 31.3 µM (inactive); in experiment [15], 36.1 µM (inactive); in [13] it was 47.4 µM (inactive). Besides, the GI50 in [14] was 29.6 µM (inactive).

By GI50 is commonly meant the concentration that inhibits growth by half.

For the origin of these results see ChEMBL document CHEMBL1201862, “PubChem BioAssay data set” (2004).
